Our source for the IC50 and Ki values is ChEMBL document CHEMBL1909046, “DrugMatrix in vitro pharmacology data”.

One series has as its target T1, Estrogen receptor (Homo sapiens, UniProt P03372). Note: in other assays of this panel Not Active means under 50% inhibition at 10 µM.
T1 sequence (P03372 whole entry): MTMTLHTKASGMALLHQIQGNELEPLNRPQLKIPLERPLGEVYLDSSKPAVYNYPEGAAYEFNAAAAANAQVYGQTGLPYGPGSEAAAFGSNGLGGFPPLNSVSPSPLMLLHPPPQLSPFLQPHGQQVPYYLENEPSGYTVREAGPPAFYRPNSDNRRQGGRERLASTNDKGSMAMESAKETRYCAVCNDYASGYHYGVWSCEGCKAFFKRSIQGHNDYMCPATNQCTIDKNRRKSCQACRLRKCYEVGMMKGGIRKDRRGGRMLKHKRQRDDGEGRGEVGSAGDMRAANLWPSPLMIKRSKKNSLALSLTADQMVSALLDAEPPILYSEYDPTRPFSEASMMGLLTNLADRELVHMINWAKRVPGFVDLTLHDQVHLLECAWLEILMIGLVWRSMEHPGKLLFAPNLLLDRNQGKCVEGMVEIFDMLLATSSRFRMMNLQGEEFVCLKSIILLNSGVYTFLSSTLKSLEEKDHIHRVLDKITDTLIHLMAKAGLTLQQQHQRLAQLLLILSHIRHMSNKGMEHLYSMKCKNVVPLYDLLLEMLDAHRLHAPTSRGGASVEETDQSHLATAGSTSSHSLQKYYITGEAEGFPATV
The note with it: sf9.

Another series has as its target Cytochrome P450 3A4 (Homo sapiens, UniProt P08684). The following applies: bti-tn-5b1-4. Note: in other assays of this panel Not Active means under 50% inhibition at 10 µM.
Series [1] concerns the target T2, C-X-C chemokine receptor type 1 (Homo sapiens, UniProt P25024). Note: in other assays of this panel Not Active means under 50% inhibition at 10 µM.
T2 sequence (P25024 whole entry): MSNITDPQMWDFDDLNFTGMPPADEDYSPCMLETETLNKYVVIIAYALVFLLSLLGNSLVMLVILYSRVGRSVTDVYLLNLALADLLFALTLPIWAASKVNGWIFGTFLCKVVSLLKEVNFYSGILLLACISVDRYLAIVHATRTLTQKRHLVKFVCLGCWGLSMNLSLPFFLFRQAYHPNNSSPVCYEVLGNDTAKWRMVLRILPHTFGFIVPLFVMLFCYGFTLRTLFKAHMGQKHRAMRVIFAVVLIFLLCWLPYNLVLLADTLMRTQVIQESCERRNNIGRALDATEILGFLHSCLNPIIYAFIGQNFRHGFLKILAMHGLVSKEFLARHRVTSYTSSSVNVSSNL

Series [2] addresses 5-hydroxytryptamine receptor 4 (Cavia porcellus, UniProt O70528). It is filed as cell membranes, Dunkin-Hartley, Striatum, Membrane.
The target in another series is Adenosine receptor A2a (Homo sapiens, UniProt P29274). The series is described as follows: DRUGMATRIX: Adenosine A2A radioligand binding (ligand: […]). The series is classed as cell membranes, HEK293, Membrane. The following applies: hek293; Not Active = under 50% inhibition at 10 µM.
Sequence of Adenosine receptor A2a (P29274 whole entry): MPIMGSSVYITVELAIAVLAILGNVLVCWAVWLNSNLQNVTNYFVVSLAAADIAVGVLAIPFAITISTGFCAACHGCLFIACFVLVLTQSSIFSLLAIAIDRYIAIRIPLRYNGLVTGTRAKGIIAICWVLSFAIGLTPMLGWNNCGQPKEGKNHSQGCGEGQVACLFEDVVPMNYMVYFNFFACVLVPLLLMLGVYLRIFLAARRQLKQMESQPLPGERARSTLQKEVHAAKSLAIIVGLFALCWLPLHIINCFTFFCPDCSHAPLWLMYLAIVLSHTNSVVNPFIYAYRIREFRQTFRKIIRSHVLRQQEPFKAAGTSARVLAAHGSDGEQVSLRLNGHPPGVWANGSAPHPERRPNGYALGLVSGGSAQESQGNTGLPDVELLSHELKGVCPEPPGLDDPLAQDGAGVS
The target of series [3] is T3, Vasoactive intestinal polypeptide receptor 1 (Homo sapiens, UniProt P32241). Note: in other assays of this panel Not Active means under 50% inhibition at 10 µM.
T3 sequence (P32241 whole entry): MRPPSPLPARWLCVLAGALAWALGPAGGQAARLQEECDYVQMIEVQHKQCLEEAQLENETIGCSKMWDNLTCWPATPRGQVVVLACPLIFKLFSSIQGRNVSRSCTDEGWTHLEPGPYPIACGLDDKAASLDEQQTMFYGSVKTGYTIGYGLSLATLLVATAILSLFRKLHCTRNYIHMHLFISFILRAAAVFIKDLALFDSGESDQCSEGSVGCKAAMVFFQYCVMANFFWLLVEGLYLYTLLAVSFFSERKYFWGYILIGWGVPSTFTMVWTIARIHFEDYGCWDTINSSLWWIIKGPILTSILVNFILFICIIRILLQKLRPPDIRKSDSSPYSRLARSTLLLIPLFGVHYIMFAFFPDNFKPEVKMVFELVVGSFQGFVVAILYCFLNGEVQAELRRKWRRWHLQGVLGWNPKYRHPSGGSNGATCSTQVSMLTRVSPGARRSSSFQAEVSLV
It is filed as cell membranes, Membrane. The note with it: ht-29.

A further series concerns the target Nitric oxide synthase 1 (Rattus norvegicus, UniProt P29476). The series is classed as tissue-based, Cerebellum. Note: in other assays of this panel Not Active means under 50% inhibition at 10 µM.
Series [4] concerns the target T4, Muscarinic acetylcholine receptor M5 (Homo sapiens, UniProt P08912). Note: in other assays of this panel Not Active means under 50% inhibition at 10 µM.
T4 sequence (P08912 whole entry): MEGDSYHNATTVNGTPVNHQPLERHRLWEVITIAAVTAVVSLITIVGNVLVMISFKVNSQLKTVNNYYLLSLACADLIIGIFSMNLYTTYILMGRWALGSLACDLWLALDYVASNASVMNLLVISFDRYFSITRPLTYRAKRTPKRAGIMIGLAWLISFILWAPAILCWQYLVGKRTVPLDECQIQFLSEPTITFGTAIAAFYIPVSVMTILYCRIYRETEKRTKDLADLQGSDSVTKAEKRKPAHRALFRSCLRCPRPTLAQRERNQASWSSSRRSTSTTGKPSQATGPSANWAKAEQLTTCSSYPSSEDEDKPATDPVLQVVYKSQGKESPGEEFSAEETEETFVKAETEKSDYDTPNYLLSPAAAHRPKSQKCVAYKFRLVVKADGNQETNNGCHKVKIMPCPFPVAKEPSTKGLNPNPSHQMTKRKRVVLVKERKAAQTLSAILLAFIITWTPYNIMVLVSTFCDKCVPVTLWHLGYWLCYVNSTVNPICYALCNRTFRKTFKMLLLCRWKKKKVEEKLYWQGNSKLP
The series is classed as cell membranes, CHO-K1, Membrane.

SMILES strings stand for the structures.

Sequence of 5-hydroxytryptamine receptor 4 (O70528 whole entry): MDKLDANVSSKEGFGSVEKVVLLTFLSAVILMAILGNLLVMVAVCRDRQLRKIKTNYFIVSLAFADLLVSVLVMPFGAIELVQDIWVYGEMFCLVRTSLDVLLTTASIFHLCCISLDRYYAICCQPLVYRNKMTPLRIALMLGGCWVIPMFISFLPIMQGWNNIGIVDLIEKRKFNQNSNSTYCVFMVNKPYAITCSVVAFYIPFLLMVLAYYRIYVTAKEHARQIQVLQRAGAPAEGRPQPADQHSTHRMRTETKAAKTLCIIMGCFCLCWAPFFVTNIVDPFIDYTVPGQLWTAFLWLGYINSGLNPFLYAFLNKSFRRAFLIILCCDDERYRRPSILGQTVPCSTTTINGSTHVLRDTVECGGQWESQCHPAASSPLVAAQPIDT
Sequence of Nitric oxide synthase 1 (P29476 whole entry): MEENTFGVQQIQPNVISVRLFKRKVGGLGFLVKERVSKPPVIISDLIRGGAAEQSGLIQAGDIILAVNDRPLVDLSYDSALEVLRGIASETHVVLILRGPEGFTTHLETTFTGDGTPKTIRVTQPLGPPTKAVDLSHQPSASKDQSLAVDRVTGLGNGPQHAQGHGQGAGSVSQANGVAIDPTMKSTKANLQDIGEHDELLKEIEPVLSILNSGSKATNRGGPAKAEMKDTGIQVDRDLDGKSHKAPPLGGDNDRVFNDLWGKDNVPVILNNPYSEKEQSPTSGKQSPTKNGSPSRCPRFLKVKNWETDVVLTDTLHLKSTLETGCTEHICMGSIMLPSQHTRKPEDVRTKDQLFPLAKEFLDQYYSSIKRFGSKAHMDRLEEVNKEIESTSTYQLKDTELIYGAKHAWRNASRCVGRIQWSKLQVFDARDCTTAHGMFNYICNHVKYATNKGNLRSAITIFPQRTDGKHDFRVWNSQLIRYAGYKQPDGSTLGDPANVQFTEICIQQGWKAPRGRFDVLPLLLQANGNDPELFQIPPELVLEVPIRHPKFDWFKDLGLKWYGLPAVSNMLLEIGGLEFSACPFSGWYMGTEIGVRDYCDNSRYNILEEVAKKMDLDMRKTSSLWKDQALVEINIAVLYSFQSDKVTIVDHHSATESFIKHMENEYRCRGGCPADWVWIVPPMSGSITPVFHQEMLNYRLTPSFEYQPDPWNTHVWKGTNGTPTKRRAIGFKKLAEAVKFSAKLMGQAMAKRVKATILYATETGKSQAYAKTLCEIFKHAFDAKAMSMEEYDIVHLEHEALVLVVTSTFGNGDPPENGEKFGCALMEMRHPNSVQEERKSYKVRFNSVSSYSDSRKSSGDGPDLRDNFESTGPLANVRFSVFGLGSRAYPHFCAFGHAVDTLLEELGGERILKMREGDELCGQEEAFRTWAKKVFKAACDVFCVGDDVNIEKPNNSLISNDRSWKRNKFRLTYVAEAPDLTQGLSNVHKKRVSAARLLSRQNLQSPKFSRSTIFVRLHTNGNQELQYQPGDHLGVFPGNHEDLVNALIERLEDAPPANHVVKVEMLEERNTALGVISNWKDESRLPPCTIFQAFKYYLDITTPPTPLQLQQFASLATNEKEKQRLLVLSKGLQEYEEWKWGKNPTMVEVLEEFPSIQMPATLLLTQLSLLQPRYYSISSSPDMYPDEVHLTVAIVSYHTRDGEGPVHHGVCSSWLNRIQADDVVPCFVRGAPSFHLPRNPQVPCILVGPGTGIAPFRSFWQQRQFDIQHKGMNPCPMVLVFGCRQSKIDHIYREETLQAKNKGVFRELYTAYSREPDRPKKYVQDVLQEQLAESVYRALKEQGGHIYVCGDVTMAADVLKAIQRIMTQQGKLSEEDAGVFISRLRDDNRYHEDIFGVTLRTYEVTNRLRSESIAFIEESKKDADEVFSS
Sequence of Cytochrome P450 3A4 (P08684 whole entry): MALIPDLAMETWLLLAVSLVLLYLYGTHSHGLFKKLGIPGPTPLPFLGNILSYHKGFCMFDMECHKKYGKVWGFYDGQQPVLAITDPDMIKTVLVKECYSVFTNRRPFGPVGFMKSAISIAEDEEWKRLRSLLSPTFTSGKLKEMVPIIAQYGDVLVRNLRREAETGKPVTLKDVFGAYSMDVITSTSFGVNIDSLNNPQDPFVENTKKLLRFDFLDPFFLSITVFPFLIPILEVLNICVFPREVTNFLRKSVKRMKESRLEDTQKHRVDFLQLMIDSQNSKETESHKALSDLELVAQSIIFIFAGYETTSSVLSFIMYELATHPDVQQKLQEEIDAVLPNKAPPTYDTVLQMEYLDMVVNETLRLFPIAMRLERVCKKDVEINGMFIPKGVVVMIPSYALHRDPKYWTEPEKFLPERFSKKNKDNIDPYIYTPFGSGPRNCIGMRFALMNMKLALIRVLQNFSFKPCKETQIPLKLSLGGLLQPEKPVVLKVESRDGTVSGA

With `CC(O)COC[C@H]1O[C@@H]2O[C@H]3[C@H](O)[C@@H](O)[C@@H](O[C@H]4[C@H](O)[C@@H](O)[C@@H](O[C@H]5[C@H](O)[C@@H](O)[C@@H](O[C@H]6[C@H](O)[C@@H](O)[C@@H](O[C@H]7[C@H](O)[C@@H](O)[C@@H](O[C@H]8[C@H](O)[C@@H](O)[C@@H](O[C@H]1[C@H](O)[C@H]2O)O[C@@H]8COCC(C)O)O[C@@H]7COCC(C)O)O[C@@H]6COCC(C)O)O[C@@H]5COCC(C)O)O[C@@H]4COCC(C)O)O[C@@H]3COCC(C)O` (stereo partly drawn) [2-HYDROXYPROPYL-BETA-CYCLODEXTRIN], the IC50 entry (at Estrogen receptor; against Cytochrome P450 3A4; in series [1]; in series [2]; at Adenosine receptor A2a; in series [3]) was “Not Active” in each case. In addition, the IC50 entry (at Nitric oxide synthase 1; in series [4] (cho-k1)) was “Not Active” in each case. Also, the Ki entry on Cytochrome P450 3A4 is reported as “Not Active”.

`NC(=O)c1cccc(N)c1` [3-AMINOBENZAMIDE]: the IC50 entry (against Estrogen receptor; against Cytochrome P450 3A4; in series [1]; in series [2]; at Adenosine receptor A2a; in series [3]) was “Not Active” throughout. For the same molecule, the IC50 result (on Nitric oxide synthase 1; in series [4] (cho-k1)) was “Not Active” each time. For the same molecule, the Ki result at Cytochrome P450 3A4 is “Not Active”.

On to `CC[C@H]1[C@@H]2C[C@H]3[C@@H]4N(C)c5ccccc5[C@]45C[C@@H]([C@@H]2[C@H]5O)N3[C@@H]1O` [AJMALINE], for which the IC50 entry (against Estrogen receptor; on Cytochrome P450 3A4; in series [1]; in series [2]; on Adenosine receptor A2a; in series [3]) was “Not Active” each time. The IC50 entry (at Nitric oxide synthase 1; in series [4] (cho-k1)) was “Not Active” in each case. The Ki result at Cytochrome P450 3A4 was “Not Active”.

`NCCCNCCSP(=O)(O)O` [AMIFOSTINE]: the IC50 result (against Estrogen receptor; against Cytochrome P450 3A4; in series [1]; in series [2]; on Adenosine receptor A2a; in series [3]) was “Not Active” in each case. Besides, the IC50 entry (against Nitric oxide synthase 1; in series [4] (cho-k1)) was “Not Active” throughout. Also, the Ki result on Cytochrome P450 3A4 is reported as “Not Active”.

Turning to `CN(C)CCC=C1c2ccccc2CCc2ccccc21` [AMITRIPTYLINE], the IC50 entry (against Estrogen receptor; against Cytochrome P450 3A4; in series [1]; in series [2]; at Adenosine receptor A2a; in series [3]) was “Not Active” throughout. Moreover, the IC50 entry against Nitric oxide synthase 1 was “Not Active”; in series [4] (read-out: IC50), 8.02 nM. Further, the values for the Ki result (on Cytochrome P450 3A4; in series [4] (read-out: Ki)) were “Not Active” and 5.76 nM, respectively.

For `CC(=O)Oc1ccccc1C(=O)O` [ASPIRIN], the IC50 result (at Estrogen receptor; at Cytochrome P450 3A4; in series [1]; in series [2]; at Adenosine receptor A2a; in series [3]) was “Not Active” throughout. In addition, the IC50 result (against Nitric oxide synthase 1; in series [4] (cho-k1)) was “Not Active” throughout. The Ki result on Cytochrome P450 3A4 is “Not Active”.

For `CC(=O)OC[C@H]1O[C@@H](n2ncc(=O)[nH]c2=O)[C@H](OC(C)=O)[C@@H]1OC(C)=O` [AZARIBINE], the IC50 result (on Estrogen receptor; at Cytochrome P450 3A4; in series [1]; in series [2]; at Adenosine receptor A2a; in series [3]) was “Not Active” throughout. For the same molecule, the IC50 result on Nitric oxide synthase 1 is “Not Active”. Besides, the Ki entry (at Cytochrome P450 3A4; in series [4] (cho-k1)) was “Not Active” in each case.

As for `O=C(O)CCNC(=O)c1ccc(/N=N/c2ccc(O)c(C(=O)O)c2)cc1` [BALSALAZIDE], the IC50 entry (against Estrogen receptor; against Cytochrome P450 3A4; in series [1]; in series [2]; on Adenosine receptor A2a; in series [3]) was “Not Active” each time. For the same molecule, the IC50 result (against Nitric oxide synthase 1; in series [4] (cho-k1)) was “Not Active” throughout. For the same molecule, the Ki entry on Cytochrome P450 3A4 is on record as “Not Active”.

With `ClC(Cl)(Cl)Cl` [CARBON TETRACHLORIDE], the IC50 result (against Estrogen receptor; against Cytochrome P450 3A4; in series [1]; in series [2]; on Adenosine receptor A2a; in series [3]) was “Not Active” each time. For the same molecule, the IC50 result (on Nitric oxide synthase 1; in series [4] (cho-k1)) was “Not Active” throughout. The Ki result on Cytochrome P450 3A4 is on record as “Not Active”.

In the case of `CNC1=Nc2ccc(Cl)cc2C(c2ccccc2)=[N+]([O-])C1` [CHLORDIAZEPOXIDE], the IC50 result (against Estrogen receptor; against Cytochrome P450 3A4; in series [1]; in series [2]; at Adenosine receptor A2a; in series [3]) was “Not Active” throughout. The IC50 entry (at Nitric oxide synthase 1; in series [4] (cho-k1)) was “Not Active” each time. Besides, the Ki result on Cytochrome P450 3A4 is listed as “Not Active”.

Regarding `CCCNC(=O)NS(=O)(=O)c1ccc(Cl)cc1` [CHLORPROPAMIDE], the IC50 result (at Estrogen receptor; at Cytochrome P450 3A4; in series [1]; in series [2]; on Adenosine receptor A2a; in series [3]) was “Not Active” each time. The concentration for half-maximal inhibition (IC50) entry (on Nitric oxide synthase 1; in series [4] (cho-k1)) was “Not Active” each time. Also, the Ki result at Cytochrome P450 3A4 is “Not Active”.

Take `O=C(O)CC(O)(CC(=O)O)C(=O)O` [CITRIC ACID]: the 50% inhibitory concentration (IC50) result (against Estrogen receptor; against Cytochrome P450 3A4; in series [1]; in series [2]; at Adenosine receptor A2a; in series [3]) was “Not Active” each time. The IC50 result (on Nitric oxide synthase 1; in series [4] (cho-k1)) was “Not Active” throughout. Also, the Ki entry on Cytochrome P450 3A4 is reported as “Not Active”.

Regarding `CC(C)NCC(O)c1ccccc1Cl` (stereo not drawn) [CLORPRENALINE], the IC50 result (against Estrogen receptor; at Cytochrome P450 3A4; in series [1]; in series [2]; at Adenosine receptor A2a; in series [3]) was “Not Active” throughout. The IC50 entry (against Nitric oxide synthase 1; in series [4] (cho-k1)) was “Not Active” in each case. For the same molecule, on Cytochrome P450 3A4, the Ki entry is given as “Not Active”.

On to `CN1CCN(C(c2ccccc2)c2ccccc2)CC1` [CYCLIZINE], for which the IC50 entry (at Estrogen receptor; on Cytochrome P450 3A4; in series [1]; in series [2]; at Adenosine receptor A2a; in series [3]) was “Not Active” throughout. The IC50 result is “Not Active” against Nitric oxide synthase 1 and 633 nM in series [4] (read-out: IC50). The values for the Ki entry (on Cytochrome P450 3A4; in series [4] (read-out: Ki)) were “Not Active” and 455 nM, respectively.

The term IC50 denotes the midpoint of a concentration-inhibition curve. By Ki is commonly meant the equilibrium dissociation constant of an inhibitor or competing ligand from its target.
